Source: the NIST ThermoML archive (doi:10.1016/j.fluid.2014.11.020)
Numbers after ± are expanded uncertainties.

Assay: activity coefficient (dimensionless); of the first substance listed, at infinite dilution; xn = mol fraction of the nth substance listed
Conditions: Liquid, Chromatography, x1 = 0

Compound | activity coefficient (323.15 K) | activity coefficient (333.15 K) | activity coefficient (343.15 K)
CCOCC [diethyl ether] + CCCOC[n+]1ccn(Cc2ccccc2)c1.F[B-](F)(F)F | 6.03 ± 0.41 | 5.79 ± 0.39 | –
c1ccsc1 [thiophene] + N#C[N-]C#N.N#C[N-]C#N.c1ccc(Cn2cc[n+](COCCCOC[n+]3ccn(Cc4ccccc4)c3)c2)cc1 | 1.7 ± 0.11 | 1.64 ± 0.11 | 1.67 ± 0.11
CO [methanol] + CCCCCCCCn1cc[n+](COCCC)c1C.O=S(=O)([N-]S(=O)(=O)C(F)(F)F)C(F)(F)F | 0.98 ± 0.06 | 0.89 ± 0.06 | 0.85 ± 0.05
CC#N [acetonitrile] + CCCCCCCCn1cc[n+](COCCCOC[n+]2ccn(CCCCCCCC)c2C)c1C.N#C[N-]C#N.N#C[N-]C#N | 0.46 ± 0.04 | 0.46 ± 0.04 | 0.45 ± 0.04
CCCCCCCCCCC [undecane] + CCCCCCCCn1cc[n+](COCCC)c1C.O=S(=O)([N-]S(=O)(=O)C(F)(F)F)C(F)(F)F | 11.2 ± 0.76 | 10.5 ± 0.72 | 9.8 ± 0.67
CCCCCCC [heptane] + CCCOC[n+]1ccn(Cc2ccccc2)c1.N#C[N-]C#N | 48 ± 3.3 | 44.9 ± 3.1 | 41.8 ± 2.9
ClC(Cl)(Cl)Cl [tetrachloromethane] + CCCOC[n+]1ccn(C)c1.F[B-](F)(F)F | 8.91 ± 0.61 | 8.58 ± 0.59 | 8.19 ± 0.56
CO [methanol] + CCCCCCCCn1cc[n+](COCCCOC[n+]2ccn(CCCCCCCC)c2C)c1C.O=S(=O)([N-]S(=O)(=O)C(F)(F)F)C(F)(F)F.O=S(=O)([N-]S(=O)(=O)C(F)(F)F)C(F)(F)F | 0.57 ± 0.04 | 0.51 ± 0.04 | 0.49 ± 0.04
C#CCCCC [1-hexyne] + CCCOC[n+]1ccn(C)c1.O=S(=O)([N-]S(=O)(=O)C(F)(F)F)C(F)(F)F | 3.39 ± 0.23 | 3.4 ± 0.23 | 3.4 ± 0.23
CCN(CC)CC [triethylamine] + CCCOC[n+]1ccn(C)c1.N#C[N-]C#N | 10.3 ± 0.7 | 15.7 ± 1.1 | 24.8 ± 1.7
Cc1cccc(C)c1 [1,3-dimethylbenzene] + CCCCCCCCn1cc[n+](COCCCOC[n+]2ccn(CCCCCCCC)c2C)c1C.O=S(=O)([N-]S(=O)(=O)C(F)(F)F)C(F)(F)F.O=S(=O)([N-]S(=O)(=O)C(F)(F)F)C(F)(F)F | 0.75 ± 0.05 | 0.72 ± 0.05 | 0.74 ± 0.05
CCCCCCCCCC [decane] + Cn1cc[n+](COCCCOC[n+]2ccn(C)c2)c1.O=S(=O)([N-]S(=O)(=O)C(F)(F)F)C(F)(F)F.O=S(=O)([N-]S(=O)(=O)C(F)(F)F)C(F)(F)F | 141 ± 9.7 | 132 ± 9 | 109 ± 7.5
Cc1cccc(C)c1 [1,3-dimethylbenzene] + CCCOC[n+]1ccn(Cc2ccccc2)c1.O=S(=O)([N-]S(=O)(=O)C(F)(F)F)C(F)(F)F | 1.55 ± 0.1 | 1.37 ± 0.09 | 1.35 ± 0.09
C1CCCCCC1 [cycloheptane] + CCCCCCCCn1cc[n+](COCCCOC[n+]2ccn(CCCCCCCC)c2C)c1C.O=S(=O)([N-]S(=O)(=O)C(F)(F)F)C(F)(F)F.O=S(=O)([N-]S(=O)(=O)C(F)(F)F)C(F)(F)F | 5.84 ± 0.4 | 7.77 ± 0.53 | 10.2 ± 0.7
CC#N [acetonitrile] + CCCOC[n+]1ccc(N(C)C)cc1.O=S(=O)([N-]S(=O)(=O)C(F)(F)F)C(F)(F)F | 0.51 ± 0.04 | 0.52 ± 0.04 | 0.52 ± 0.04
CC1CCCCC1 [methylcyclohexane] + CCCCCCCCn1cc[n+](COCCC)c1C.O=S(=O)([N-]S(=O)(=O)C(F)(F)F)C(F)(F)F | 3.09 ± 0.21 | 2.91 ± 0.2 | 2.8 ± 0.19
CC(C)O [propan-2-ol] + CCCOC[n+]1ccn(C)c1.N#C[N-]C#N | 1.1 ± 0.07 | 1.07 ± 0.07 | 1.04 ± 0.07
Cc1ccc(C)cc1 [1,4-dimethylbenzene] + CCCOC[n+]1ccn(Cc2ccccc2)c1.N#C[N-]C#N | 3.66 ± 0.25 | 3.56 ± 0.24 | 3.46 ± 0.24
CCN(CC)CC [triethylamine] + CCCOC[n+]1ccn(Cc2ccccc2)c1.N#C[N-]C#N | 9.22 ± 0.63 | – | –
CCCCCCCCCCCC [dodecane] + Cn1cc[n+](COCCCOC[n+]2ccn(C)c2)c1.N#C[N-]C#N.N#C[N-]C#N | 1150 ± 79 | 962 ± 66 | 932 ± 64
c1ccsc1 [thiophene] + CCCCCCCCn1cc[n+](COCCC)c1C.N#C[N-]C#N | 0.66 ± 0.05 | 0.66 ± 0.05 | 0.64 ± 0.04
CC(C)O [propan-2-ol] + CCCOC[n+]1ccn(Cc2ccccc2)c1.N#C[N-]C#N | 0.85 ± 0.05 | 0.84 ± 0.05 | 0.82 ± 0.05

Compound | activity coefficient (323.15 K) | activity coefficient (333.15 K) | activity coefficient (343.15 K)
CCCCCC [hexane] + CCCCCCCCn1cc[n+](COCCCOC[n+]2ccn(CCCCCCCC)c2C)c1C.N#C[N-]C#N.N#C[N-]C#N | 8.9 ± 0.6 | – | –
CC1CCCC1 [methylcyclopentane] + CCCCCCCCn1cc[n+](COCCC)c1C.O=S(=O)([N-]S(=O)(=O)C(F)(F)F)C(F)(F)F | 2.72 ± 0.19 | 2.41 ± 0.16 | 2.27 ± 0.15
CCc1ccccc1 [ethylbenzene] + Cn1cc[n+](COCCCOC[n+]2ccn(C)c2)c1.O=S(=O)([N-]S(=O)(=O)C(F)(F)F)C(F)(F)F.O=S(=O)([N-]S(=O)(=O)C(F)(F)F)C(F)(F)F | 2.41 ± 0.16 | 2.44 ± 0.17 | 2.38 ± 0.16
C=CCCCC [hex-1-ene] + CN(C)c1cc[n+](COCCCOC[n+]2ccc(N(C)C)cc2)cc1.O=S(=O)([N-]S(=O)(=O)C(F)(F)F)C(F)(F)F.O=S(=O)([N-]S(=O)(=O)C(F)(F)F)C(F)(F)F | 9.4 ± 0.64 | 8.7 ± 0.59 | 7.95 ± 0.54
CC(C)OC(C)C [diisopropyl ether] + CCCOC[n+]1ccc(N(C)C)cc1.O=S(=O)([N-]S(=O)(=O)C(F)(F)F)C(F)(F)F | 4.49 ± 0.31 | 4.54 ± 0.31 | 4.12 ± 0.28
CCC(C)=O [butanone] + CCCCCCCCn1cc[n+](COCCC)c1C.O=S(=O)([N-]S(=O)(=O)C(F)(F)F)C(F)(F)F | 0.36 ± 0.03 | 0.33 ± 0.03 | 0.3 ± 0.03
c1ccccc1 [benzene] + Cn1cc[n+](COCCCOC[n+]2ccn(C)c2)c1.O=S(=O)([N-]S(=O)(=O)C(F)(F)F)C(F)(F)F.O=S(=O)([N-]S(=O)(=O)C(F)(F)F)C(F)(F)F | 0.94 ± 0.06 | 0.94 ± 0.06 | 0.9 ± 0.06
CCCCCCCCCC [decane] + CCCCCCCCn1cc[n+](COCCC)c1C.N#C[N-]C#N | 17 ± 1.2 | 15.5 ± 1.1 | 14.9 ± 1
CC#N [acetonitrile] + CCCCCCCCn1cc[n+](COCCC)c1C.N#C[N-]C#N | 0.72 ± 0.05 | 0.7 ± 0.05 | 0.69 ± 0.05
C[N+](=O)[O-] [nitromethane] + CCCOC[n+]1ccn(C)c1.N#C[N-]C#N | 0.69 ± 0.05 | 0.7 ± 0.05 | 0.73 ± 0.05
CCOCC [diethyl ether] + CN(C)c1cc[n+](COCCCOC[n+]2ccc(N(C)C)cc2)cc1.O=S(=O)([N-]S(=O)(=O)C(F)(F)F)C(F)(F)F.O=S(=O)([N-]S(=O)(=O)C(F)(F)F)C(F)(F)F | 2.46 ± 0.17 | 2.47 ± 0.17 | 2.43 ± 0.17
Cc1ccccc1C [1,2-dimethylbenzene] + N#C[N-]C#N.N#C[N-]C#N.c1ccc(Cn2cc[n+](COCCCOC[n+]3ccn(Cc4ccccc4)c3)c2)cc1 | 7.13 ± 0.49 | 6.87 ± 0.47 | 6.71 ± 0.46
C[N+](=O)[O-] [nitromethane] + Cn1cc[n+](COCCCOC[n+]2ccn(C)c2)c1.O=S(=O)([N-]S(=O)(=O)C(F)(F)F)C(F)(F)F.O=S(=O)([N-]S(=O)(=O)C(F)(F)F)C(F)(F)F | 0.31 ± 0.03 | 0.31 ± 0.03 | 0.29 ± 0.03
CC1CCCCC1 [methylcyclohexane] + CCCOC[n+]1ccn(Cc2ccccc2)c1.O=S(=O)([N-]S(=O)(=O)C(F)(F)F)C(F)(F)F | 6.47 ± 0.44 | 6.14 ± 0.42 | 5.7 ± 0.39
CC(C)O [propan-2-ol] + CCCOC[n+]1ccn(C)c1.O=S(=O)([N-]S(=O)(=O)C(F)(F)F)C(F)(F)F | 1.9 ± 0.13 | 1.51 ± 0.1 | 1.39 ± 0.09
CCC(C)=O [butanone] + CCCCCCCCn1cc[n+](COCCC)c1C.N#C[N-]C#N | 0.7 ± 0.05 | 0.64 ± 0.04 | 0.55 ± 0.04
Cc1ccccc1 [toluene] + CCCCCCCCn1cc[n+](COCCC)c1C.N#C[N-]C#N | 1.43 ± 0.09 | 1.22 ± 0.08 | 1.15 ± 0.07
CCCCCCCCCC [decane] + CCCCCCCCn1cc[n+](COCCCOC[n+]2ccn(CCCCCCCC)c2C)c1C.O=S(=O)([N-]S(=O)(=O)C(F)(F)F)C(F)(F)F.O=S(=O)([N-]S(=O)(=O)C(F)(F)F)C(F)(F)F | 9.63 ± 0.66 | 8.73 ± 0.6 | 8.35 ± 0.57
CC1CCCCC1 [methylcyclohexane] + CCCOC[n+]1ccc(N(C)C)cc1.O=S(=O)([N-]S(=O)(=O)C(F)(F)F)C(F)(F)F | 9.3 ± 0.63 | 8.99 ± 0.61 | 7.79 ± 0.53
ClC(Cl)Cl [trichloromethane] + CCCOC[n+]1ccn(C)c1.F[B-](F)(F)F | 1.74 ± 0.12 | 1.8 ± 0.12 | 1.87 ± 0.13
CCCO [propan-1-ol] + CCCOC[n+]1ccn(C)c1.F[B-](F)(F)F | 3.1 ± 0.21 | 2.79 ± 0.19 | 2.53 ± 0.17
ClC(Cl)(Cl)Cl [tetrachloromethane] + CCCOC[n+]1ccn(C)c1.O=S(=O)([N-]S(=O)(=O)C(F)(F)F)C(F)(F)F | 3 ± 0.2 | 3.05 ± 0.21 | 2.85 ± 0.19
